Measured values as given in ChEMBL document CHEMBL1201862, “PubChem BioAssay data set” (2004).
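Assay format: 96-well plates, 48-hour exposure. The concentration for 50% growth inhibition is given as GI50.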 The source made the active and inactive calls. No stated cut-off is given here; in the data, active = GI50 up to about 1.1 µM and inactive = higher.

Experiments:
Test in all cases: growth of human tumour cells (NCI), 48 h
[1] = tested on: 786-0
[2] = tested on: COLO 205
[3] = tested on: HT-29
[4] = tested on: IGROV-1
[5] = tested on: MCF7
[6] = tested on: Malme-3M
[7] = tested on: OVCAR-5
[8] = tested on: OVCAR-8
[9] = tested on: RXF 393
[10] = tested on: SK-OV-3
[11] = tested on: SN12C
[12] = tested on: SNB-19
[13] = tested on: SW-620
[14] = tested on: T47D
[15] = tested on: U-251
[16] = tested on: UACC-62
[17] = tested on: UO-31
[18] = tested on: HCC 2998
[19] = tested on: BT-549

SMILES | GI50 [1] | GI50 [2] | GI50 [3] | GI50 [4] | GI50 [5] | GI50 [6] | GI50 [7] | GI50 [8] | GI50 [9] | GI50 [10] | GI50 [11] | GI50 [12] | GI50 [13] | GI50 [14] | GI50 [15] | GI50 [16] | GI50 [17] | GI50 [18] | GI50 [19]
CCSc1nc(N/N=C/c2cccs2)c2cnn(CO)c2n1 | 0.0614 µM (active) | 4.73 µM (inactive) | 3.85 µM (inactive) | 2.61 µM (inactive) | 3.59 µM (inactive) | 13.8 µM (inactive) | 13.4 µM (inactive) | 4.16 µM (inactive) | 3.66 µM (inactive) | 14.6 µM (inactive) | 6.44 µM (inactive) | 10.8 µM (inactive) | 4.42 µM (inactive) | 3.8 µM (inactive) | 6.85 µM (inactive) | 10.4 µM (inactive) | 2.81 µM (inactive) |  | 
CC1=CC(N2C(=O)C(C)=CC2O)NC1=O (centres undefined) | > 100 µM (inactive) | > 100 µM (inactive) | > 100 µM (inactive) |  |  | 45.8 µM (inactive) | > 100 µM (inactive) | > 100 µM (inactive) | > 100 µM (inactive) |  | > 100 µM (inactive) | > 100 µM (inactive) | > 100 µM (inactive) |  | > 100 µM (inactive) |  | > 100 µM (inactive) | > 100 µM (inactive) | 
CC1=NC=C(O)c2ccccc2O1 | > 100 µM (inactive) | > 100 µM (inactive) | > 100 µM (inactive) | > 100 µM (inactive) |  | > 100 µM (inactive) |  | > 100 µM (inactive) | > 100 µM (inactive) | > 100 µM (inactive) | > 100 µM (inactive) | > 100 µM (inactive) | > 100 µM (inactive) |  | > 100 µM (inactive) | > 100 µM (inactive) | 85.5 µM (inactive) | > 100 µM (inactive) | 
CCCCCCC(O)CC[C@H]1CCC[C@@H](C)N1 (some centres undefined) | > 10 µM (inactive) | > 31.6 µM (inactive) | 29 µM (inactive) | > 100 µM (inactive) |  | > 100 µM (inactive) | > 10 µM (inactive) | > 10 µM (inactive) | > 100 µM (inactive) | > 100 µM (inactive) | > 100 µM (inactive) | > 10 µM (inactive) | > 100 µM (inactive) |  | > 31.6 µM (inactive) | 72.6 µM (inactive) | > 84.3 µM (inactive) | > 19.9 µM (inactive) | 
O=c1nc(/C=C/c2ccccc2Cl)cc2n1CCN2CCO | > 100 µM (inactive) | > 100 µM (inactive) | > 100 µM (inactive) | > 100 µM (inactive) |  | > 100 µM (inactive) | > 100 µM (inactive) | > 100 µM (inactive) | 95.1 µM (inactive) | 43.8 µM (inactive) | > 100 µM (inactive) | < 0.01 µM (active) | > 100 µM (inactive) |  |  | > 100 µM (inactive) | > 100 µM (inactive) |  | 
Cc1n[nH]/c(=N\S(=O)(=O)c2ccc(/N=N/c3c(O)c(C(=O)O)cc4ccccc34)cc2)s1 | > 100 µM (inactive) | > 100 µM (inactive) | > 100 µM (inactive) | > 100 µM (inactive) | > 100 µM (inactive) | > 100 µM (inactive) | > 100 µM (inactive) | > 100 µM (inactive) | > 100 µM (inactive) | > 100 µM (inactive) | > 100 µM (inactive) | > 100 µM (inactive) | > 100 µM (inactive) | > 100 µM (inactive) | > 100 µM (inactive) | > 100 µM (inactive) | > 100 µM (inactive) | > 100 µM (inactive) | 
CC1=CC(C)C(C)N(CCNC(=O)Nc2ccccc2)c2ccccc21 (centres undefined) | 30.3 µM (inactive) | 16.6 µM (inactive) | 12 µM (inactive) | 28.2 µM (inactive) | 17.4 µM (inactive) | 24.6 µM (inactive) | 19.5 µM (inactive) | 15.5 µM (inactive) | 11.5 µM (inactive) | 19.1 µM (inactive) | 25.9 µM (inactive) | 20.3 µM (inactive) | 26.5 µM (inactive) | 21.3 µM (inactive) |  | 13.6 µM (inactive) | 27.2 µM (inactive) | 18.1 µM (inactive) | 
COC(=O)C(C)(C)OCc1ccc(C2NC(=O)N(c3cccc(Cl)c3)C(=O)N2c2cccc(Cl)c2)cc1 (centres undefined) | 40.9 µM (inactive) | 28.6 µM (inactive) | 26.1 µM (inactive) | 22 µM (inactive) | 35.7 µM (inactive) |  | > 100 µM (inactive) | 32.6 µM (inactive) | 26.4 µM (inactive) | 54.3 µM (inactive) | 29.2 µM (inactive) | > 100 µM (inactive) | 75.5 µM (inactive) |  | 58.5 µM (inactive) | 36.6 µM (inactive) | 25.3 µM (inactive) | 40.6 µM (inactive) | 51.1 µM (inactive)
O=c1/c(=C/c2ccccc2O)sc2nc3ccccc3n12 | 53.2 µM (inactive) |  | 43.2 µM (inactive) | 16.9 µM (inactive) |  | 32.2 µM (inactive) | > 100 µM (inactive) | 45 µM (inactive) | 21.9 µM (inactive) |  | 33.9 µM (inactive) | 80.7 µM (inactive) | 40.5 µM (inactive) |  |  | 23.1 µM (inactive) | 46.8 µM (inactive) | 55.8 µM (inactive) | 
CCCCCCCCCCCCCCCCCCNc1nc(=O)n(C2CC(OP(=O)(O)OCC3OC(n4cc(F)c(=O)[nH]c4=O)CC3O)C(CO)O2)cc1F (centres undefined) | 49.4 µM (inactive) | 20.7 µM (inactive) | 16.6 µM (inactive) | 46.3 µM (inactive) | 9.86 µM (inactive) |  | 54.2 µM (inactive) | 17.5 µM (inactive) | 11.4 µM (inactive) | 31.7 µM (inactive) | > 100 µM (inactive) | 12.1 µM (inactive) | 18.8 µM (inactive) | 31.2 µM (inactive) | 17.5 µM (inactive) | 20.5 µM (inactive) | 13.5 µM (inactive) | 5.97 µM (inactive) | 
Nc1ccc(Sc2nnc(N)s2)cc1 | > 100 µM (inactive) | > 100 µM (inactive) |  | > 100 µM (inactive) | > 100 µM (inactive) |  | > 100 µM (inactive) | > 100 µM (inactive) |  | > 100 µM (inactive) | > 100 µM (inactive) | > 100 µM (inactive) | > 100 µM (inactive) | > 100 µM (inactive) | > 100 µM (inactive) |  | > 100 µM (inactive) | > 100 µM (inactive) | 
C=C(C)[C@@H]1CC[C@]2(C(=O)OC)CC[C@]3(C)[C@H](CC[C@@H]4[C@@]5(C)CC[C@H](O)C(C)(C)[C@@H]5CC[C@]43C)[C@@H]12 [METHYL BETULINATE] | 19.7 µM (inactive) |  | 20.5 µM (inactive) | 18.1 µM (inactive) | 19.4 µM (inactive) | 22.5 µM (inactive) | 26.8 µM (inactive) | 21.5 µM (inactive) | 14.5 µM (inactive) |  | 16.1 µM (inactive) | 18.7 µM (inactive) | 19.6 µM (inactive) | 12 µM (inactive) | 17.8 µM (inactive) |  | 22.8 µM (inactive) |  | 
O=C(O)c1cccc(NC(C(=O)c2ccccc2)c2ccccc2)c1 (centres undefined) | > 100 µM (inactive) | > 100 µM (inactive) |  | > 100 µM (inactive) | > 100 µM (inactive) | > 100 µM (inactive) | > 100 µM (inactive) | > 100 µM (inactive) | > 100 µM (inactive) | > 100 µM (inactive) | > 100 µM (inactive) | > 100 µM (inactive) | > 100 µM (inactive) | > 100 µM (inactive) | > 100 µM (inactive) | > 100 µM (inactive) | > 100 µM (inactive) | > 100 µM (inactive) | 
CC1(C)OC2OC(COC(=O)c3ccc(C#N)cc3)C3OC(C)(C)OC3C2O1 (centres undefined) | > 75 µM (inactive) | > 75 µM (inactive) | > 75 µM (inactive) | > 75 µM (inactive) | > 75 µM (inactive) | 61 µM (inactive) | > 75 µM (inactive) | > 75 µM (inactive) | > 75 µM (inactive) | > 75 µM (inactive) | > 75 µM (inactive) | > 75 µM (inactive) | > 75 µM (inactive) |  | > 75 µM (inactive) | > 75 µM (inactive) | 46.9 µM (inactive) | > 75 µM (inactive) | > 75 µM (inactive)
CCc1n[nH]c(=O)n1-c1ccc2ccccc2c1 | > 100 µM (inactive) | > 100 µM (inactive) | > 100 µM (inactive) | > 100 µM (inactive) | > 100 µM (inactive) | > 100 µM (inactive) | > 100 µM (inactive) | > 100 µM (inactive) | > 100 µM (inactive) | > 100 µM (inactive) | > 100 µM (inactive) | > 100 µM (inactive) | > 100 µM (inactive) | > 100 µM (inactive) | > 100 µM (inactive) | > 100 µM (inactive) | > 100 µM (inactive) | > 100 µM (inactive) | 
CC(C)(C)OC(=O)C1C(=O)NC(=O)CC1CC(OCc1ccccc1)C(COCc1ccccc1)OCc1ccccc1 (centres undefined) | 6.79 µM (inactive) |  | 3.45 µM (inactive) | 23.2 µM (inactive) | 4.51 µM (inactive) | 3.06 µM (inactive) |  | 10.3 µM (inactive) | 2.55 µM (inactive) |  | 25 µM (inactive) | 20.6 µM (inactive) | 9.33 µM (inactive) |  | 5.18 µM (inactive) |  | 2.19 µM (inactive) | 3.81 µM (inactive) | 5.48 µM (inactive)
O=C(COc1ccc(Cl)c(Cl)c1)N(Cc1ccccc1)Cc1ccc[n+](Cc2ccc(Cl)cc2S(=O)(=O)F)c1 | > 100 µM (inactive) | 72.3 µM (inactive) | > 100 µM (inactive) | 40.6 µM (inactive) | 46.3 µM (inactive) | 20 µM (inactive) | > 100 µM (inactive) | > 100 µM (inactive) | > 100 µM (inactive) | > 100 µM (inactive) | > 100 µM (inactive) | 37.8 µM (inactive) | 54.2 µM (inactive) | 59.7 µM (inactive) | 25.8 µM (inactive) | 62.1 µM (inactive) | > 100 µM (inactive) |  | 
